Common to all, as to type: cell-based
For one test, the system named is K-562. In words: Proliferation inhibition (CellTiter-Glo) in K-562 cells. As to conditions: Homo sapiens, K562, 96 h, K-562 CML cells, no FLT3 mutations, IC50 (4 days). The source says: (§1) The Proliferation Inhibitory Effect was Investigated in Human AML Cell Lines MOLM-13 (AddexBio: C0003003) [REF: Pubmed: 9305600] and MV-4-11 (ATCC: CRL-9591) [REF PMID: 3496132], and CML cell line […] (ATCC: CRL-3343) [REF PMID: 163658]. Molm-13 is heterozygous for FLT3-ITD mutation, while MV4-11 is homozygous for FLT3-ITD [PMID: 12529668]. […] Cells were maintained in RPMI-1640 medium (ThermoFisher catalog no. 61870036) supplemented with 10% of Heat Inactivated FBS (ThermoFisher catalog no.A31605) and 1% Pen-Strep (Thermofisher catalog no. 10378016) and cultured at 37° C. in a humidified incubator with 5% CO2. Cell lines were […], and the cells were maintained in a range 70%-80% confluency.
(§2) ATP is present in all metabolically active cells and is considered as a marker for cell viability and proliferation. Metabolic cell activity was determined using the CellTiter-Glo kit (Promega catalog no. G7572), an ATP monitoring system based on the production of luminescence by the reaction of ATP with added UltraGlo® recombinant luciferase (Kawano et al., 2016, PLOS One, 8; 11(7):e0158888), according to the supplier's experimental recommendations. The assay was based on a 96 well plate format.
(§3) Test compounds were dissolved at 10 mM in DMSO (Sigma catalog no. D8418; purity 299.9%) and stored at −20° C. Eight concentrations of test compound were assessed in duplicate in an individual test occasion in parallel in the selected cell lines. Gilteratinib and FF-10101 were used as reference compounds and tested in duplicate at eight concentrations. 100% of proliferation is represented by the untreated cells (0.2% DMSO).
(§4) On the day of the experiment (TO), cells were quantified with the cell viability analyser NucleoCounter (Chemometec NC-200) and diluted with fresh medium to obtain the cell density of about 10,000 cells per 200 μL medium. 200 μL of cell suspension were added into wells in the 96 well plate.
(§5) After 2 hours from seeding cells, compounds were added using a D300e compound dispenser (Life Sciences Tecan D300) at desired concentrations with shaking between each compound dispensed. Cell plates containing 200 μL/well suspension were incubated at 37° C. in a humidified incubator with […].
(§6) […] Contents were mixed for 5 min on an orbital shaker to induce cell lysis, and then incubated at room temperature for an additional 10 min in the dark to stabilize the luminescent signal. Luminescence was read by using a GloMax GM300 plate reader (Promega) using the luminescence for 96 well plate standard protocol.
(§7) Results were analysed by GraphPad (Prism) and IC50 values were calculated by non-linear regression using four parameter-logistic equation.

The subject of a further test is MV-4-11. The test is described as follows: Proliferation inhibition (CellTiter-Glo) in MV-4-11 cells. As to conditions: Homo sapiens, MV4-11, 96 h, MV-4-11 AML cells, homozygous FLT3-ITD, IC50 (4 days).
Source text: as §1, §2, §3, §4, §5, §6, §7

The test system of another test is MOLM-13. In words: Proliferation inhibition (CellTiter-Glo) in MOLM-13 cells. As to conditions: Homo sapiens, 96 h, MOLM-13 AML cells, heterozygous FLT3-ITD, IC50 (4 days).
Source text: as §1, §2, §3, §4, §5, §6, §7

SMILES strings stand for the structures. Where only a bound is given, the exact number is not on record here.

For `CC#CC(=O)N(C)[C@@H](C)C(=O)NCCc1cccc(Nc2nc(C)c(C)nc2C(N)=O)c1` [Compound 212, (S)-5,6-dimethyl-3-((3-(2-(2-(N-methylbut-2-ynamido)propanamido)ethyl)phenyl)amino)pyrazine-2-carboxamide], the IC50 in the test on K-562, in the test with MV-4-11 and in the test on MOLM-13 was greater than 500 nM in each case.
For the compound `CC#CC(=O)N(C)[C@@H](C)C(=O)NCCc1cc(Nc2nc(NC3CCOCC3)c(CC)nc2C(N)=O)cc(OC)c1` [Compound 111, 3-[3-[2-[[(2S)-2-[but-2-ynoyl(methyl)amino]propanoyl]amino]ethyl]-5-methoxy-anilino]-6-ethyl-5-(tetrahydropyran-4-ylamino)pyrazine-2-carboxamide], the IC50 in the test on K-562 is greater than 500 nM; in the test with MV-4-11, 1 to 10 nM; with MOLM-13 it was 10 to 100 nM.
In the same order, the values of `CC#CC(=O)NCC#Cc1cccc(Nc2nc(NC3CCOCC3)c(CC)nc2C(N)=O)c1` [Compound 14, 3-((3-(3-(But-2-ynamido)prop-1-yn-1-yl)phenyl)amino)-6-ethyl-5-((tetrahydro-2H-pyran-4-yl)amino)pyrazine-2-carboxamide] are greater than 500 nM, 10 to 100 nM and 10 to 100 nM.
The corresponding values for `CCc1nc(C(N)=O)c(Nc2cccc(OCCCNC(=O)[C@H](C)N(C)C(=O)/C=C/CN(C)C)c2)nc1OC` [Compound 120, (S,E)-3-((3-(3-(2-(4-(dimethylamino)-N-methylbut-2-enamido)propanamido)propoxy)phenyl)amino)-6-ethyl-5-methoxypyrazine-2-carboxamide] are greater than 500 nM, 1 to 10 nM and 1 to 10 nM.
Take `CC#CC(=O)N(C)[C@@H](C)C(=O)NCC#Cc1cc(Nc2nc(NC3CCOCC3)c(CC)nc2C(N)=O)cc(OC)c1` [Compound 108, 3-[3-[3-[[(2S)-2-[but-2-ynoyl(methyl)amino]propanoyl]amino]prop-1-ynyl]-5-methoxy-anilino]-6-ethyl-5-(tetrahydropyran-4-ylamino)pyrazine-2-carboxamide]: the IC50 in the test with K-562 was greater than 500 nM; with MV-4-11, 1 to 10 nM; in the test on MOLM-13, 1 to 10 nM.
For `CCc1nc(C(N)=O)c(Nc2cccc(CCNC(=O)C3(N(C)C(=O)/C=C/CN(C)C)CCC3)c2)nc1C` [Compound 210, (E)-3-((3-(2-(1-(4-(dimethylamino)-N-methylbut-2-enamido)cyclobutane-1-carboxamido)ethyl)phenyl)amino)-6-ethyl-5-methylpyrazine-2-carboxamide], the IC50 was greater than 500 nM in the test on K-562, 10 to 100 nM with MV-4-11 and greater than 500 nM in the test with MOLM-13.
With `CCc1nc(C(N)=O)c(Nc2cccc(OCCCNC(=O)[C@H](C)N(C)C(=O)/C=C/CN(C)C)c2)nc1N(CC)CC` [Compound 141, (S,E)-5-(diethylamino)-3-((3-(3-(2-(4-(dimethylamino)-N-methylbut-2-enamido)propanamido)propoxy)phenyl)amino)-6-ethylpyrazine-2-carboxamide], the IC50 is greater than 500 nM in the test with K-562, less than 1 nM in the test with MV-4-11 and less than 1 nM in the test with MOLM-13.
As to `Cc1nc(C(N)=O)c(Nc2cccc(OCCCNC(=O)[C@H](C)N(C)C(=O)/C=C/CN(C)C)c2)nc1NC1CCOCC1` [Compound 132, (S,E)-3-((3-(3-(2-(4-(dimethylamino)-N-methylbut-2-enamido)propanamido)propoxy)phenyl)amino)-6-methyl-5-((tetrahydro-2H-pyran-4-yl)amino)pyrazine-2-carboxamide], the results for the IC50 with K-562, in the test with MV-4-11 and in the test on MOLM-13 were greater than 500 nM, less than 1 nM and 1 to 10 nM, respectively.
The corresponding values for `CCc1nc(C(N)=O)c(Nc2cccc(OCCCNC(=O)[C@H](C)N(C)C(=O)/C=C/CN(C)C)c2)nc1N1CCC1` [Compound 148, (S,E)-5-(azetidin-1-yl)-3-((3-(3-(2-(4-(dimethylamino)-N-methylbut-2-enamido)propanamido)propoxy)phenyl)amino)-6-ethylpyrazine-2-carboxamide] are greater than 500 nM, 1 to 10 nM and 1 to 10 nM.
As for `C=CC(=O)NCCN1CCc2ccc(Nc3nc(NC4CCOCC4)c(CC)nc3C(N)=O)cc2C1=O` [Compound 106], the IC50 in the test with K-562 was greater than 500 nM; in the test with MV-4-11, 10 to 100 nM; with MOLM-13 it was 10 to 100 nM.
`C=CC(=O)N1CCC(C(=O)Nc2cccc(Nc3nc(NC4CCOCC4)c(CC)nc3C(N)=O)c2)C1` (stereo not drawn) [Compound 112, 6-ethyl-3-[3-[(1-prop-2-enoylpyrrolidine-3-carbonyl)amino]anilino]-5-(tetrahydropyran-4-ylamino)pyrazine-2-carboxamide]: the IC50 in the test on K-562 was greater than 500 nM; in the test on MV-4-11, 100 to 500 nM; in the test with MOLM-13 it was 100 to 500 nM.
For `CCc1cnc(Nc2cccc(OCCCNC(=O)[C@H](C)N(C)C(=O)/C=C/CN(C)C)c2)c(C(N)=O)n1` [Compound 121, (S,E)-3-((3-(3-(2-(4-(dimethylamino)-N-methylbut-2-enamido)propanamido)propoxy)phenyl)amino)-6-ethylpyrazine-2-carboxamide], the IC50 in the test on K-562 is greater than 500 nM; in the test on MV-4-11 it was 10 to 100 nM; in the test with MOLM-13, 100 to 500 nM.
The corresponding values for `CCc1nc(C(=O)NC)c(Nc2cccc(CCNC(=O)C(C)N(C)C(=O)/C=C/CN(C)C)c2)nc1NC1CCOCC1` (stereo not drawn) [Compound 152, (E)-3-((3-(2-(2-(4-(dimethylamino)-N-methylbut-2-enamido)propanamido)ethyl)phenyl)amino)-6-ethyl-N-methyl-5-((tetrahydro-2H-pyran-4-yl)amino)pyrazine-2-carboxamide] are greater than 500 nM, greater than 500 nM and greater than 500 nM.
Turning to `CC#CC(=O)NCCCNc1cc(Nc2nc(NC3CCOCC3)c(CC)nc2C(N)=O)ccn1` [Compound 26, 3-((2-((3-(But-2-ynamido)propyl)amino)pyridin-4-yl)amino)-6-ethyl-5-((tetrahydro-2H-pyran-4-yl)amino)pyrazine-2-carboxamide], the 50% inhibitory concentration (IC50) in the test with K-562 was greater than 500 nM; in the test with MV-4-11 it was 10 to 100 nM; in the test with MOLM-13 it was 100 to 500 nM.
The corresponding values for `C=CC(=O)N(C)CCC(=O)NCCc1cc(Nc2nc(NC3CCOCC3)c(CC)nc2C(N)=O)cc(OC)c1` [Compound 34, 6-Ethyl-3-((3-methoxy-5-(2-(3-(N-methylacrylamido)propanamido)ethyl)phenyl)amino)-5-((tetrahydro-2H-pyran-4-yl)amino)pyrazine-2-carboxamide] are greater than 500 nM, 1 to 10 nM and 10 to 100 nM.
For the compound `CC#CC(=O)NCCC#Cc1cccc(Nc2nc(NC3CCOCC3)c(CC)nc2C(N)=O)c1` [Compound 16, 3-((3-(4-(But-2-ynamido)but-1-yn-1-yl)phenyl)amino)-6-ethyl-5-((tetrahydro-2H-pyran-4-yl)amino)pyrazine-2-carboxamide], the IC50 in the test on K-562 was greater than 500 nM; in the test with MV-4-11, 100 to 500 nM; with MOLM-13 it was 100 to 500 nM.
In the case of `CCc1nc(C(N)=O)c(Nc2cccc(OC(C)CCNC(=O)[C@H](C)N(C)C(=O)/C=C/CN(C)C)c2)nc1NC1CCOCC1` (stereo partly drawn) [Compound 115, 3-[3-[3-[[(2S)-2-[[(E)-4-(dimethylamino)but-2-enoyl]-methyl-amino]propanoyl]amino]-1-methyl-propoxy]anilino]-6-ethyl-5-(tetrahydropyran-4-ylamino)pyrazine-2-carboxamide], the IC50 in the test on K-562 was greater than 500 nM; with MV-4-11, less than 1 nM; in the test with MOLM-13 it was 1 to 10 nM.
The corresponding values for `C=CC(=O)NCCCCOc1cccc(Nc2nc(NC3CCOCC3)c(CC)nc2C(N)=O)c1` [Compound 1, 3-((3-(4-Acrylamidobutoxy)phenyl)amino)-6-ethyl-5-((tetrahydro-2H-pyran-4-yl)amino)pyrazine-2-carboxamide] are greater than 500 nM, 10 to 100 nM and 100 to 500 nM.
